Data from the supplement of paper PMC10307832.

Tests used:
Assay in all cases: relative viability (nuclei count vs DMSO), 5 days (fraction); higher = more cells survive
201T = system: 201T
How it was run: (§1)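 Nuclei were stained with Hoechst during a one-step fixation (final 0.05% Triton X-100, 1% formaldehyde, 1 ug/ml Hoechst) carried out 5 days after dosing, then counted on 4× images. The cells, lung cancer lines in 1536-well plates, had been dosed by pin tool the day after seeding with one drug alone or a fixed anchor-drug dose plus five library-drug doses (not always all listed) in √10 steps. Relative viability is the nuclei count in treated wells divided by that in vehicle wells, and each value is the median of duplicate plates.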

COR-L 105 = system: COR-L 105
How it was run: as §1

ChaGo-K-1 = system: ChaGo-K-1
How it was run: as §1

EKVX = system: EKVX
How it was run: as §1

H3255 = system: H3255
How it was run: as §1

HARA = system: HARA
How it was run: as §1

HCC-827 = system: HCC-827
How it was run: as §1

HOP-62 = system: HOP-62
How it was run: as §1

LCLC-103H = system: LCLC-103H
How it was run: as §1

LOU-NH91 = system: LOU-NH91
How it was run: as §1

NCI-H1975 = system: NCI-H1975
How it was run: as §1

NCI-H2126 = system: NCI-H2126
How it was run: as §1

NCI-H2228 = system: NCI-H2228
How it was run: as §1

NCI-H23 = system: NCI-H23
How it was run: as §1

NCI-H2405 = system: NCI-H2405
How it was run: as §1

NCI-H3122 = system: NCI-H3122
How it was run: as §1

NCI-H596 = system: NCI-H596
How it was run: as §1

NCI-H650 = system: NCI-H650
How it was run: as §1

NCI-H661 = system: NCI-H661
How it was run: as §1

NCI-H727 = system: NCI-H727
How it was run: as §1

PC-3 [JPC-3] = system: PC-3 [JPC-3]
How it was run: as §1

SK-LU-1 = system: SK-LU-1
How it was run: as §1

SW 900 = system: SW 900
How it was run: as §1

Structure (SMILES): Cc1cn(-c2cc(NC(=O)c3ccc(C)c(Nc4nccc(-c5cccnc5)n4)c3)cc(C(F)(F)F)c2)cn1 [Nilotinib] + CCNC(=O)c1noc(-c2cc(C(C)C)c(O)cc2O)c1-c1ccc(CN2CCOCC2)cc1 [Luminespib] (partner 0.01 µM)
- relative viability (201T; first compound 0.003162 µM): 1.13
- relative viability (201T; first compound 0.01 µM): 1.16
- relative viability (201T; first compound 0.03162 µM): 1.11
- relative viability (201T; first compound 0.1 µM): 1.03
- relative viability (COR-L 105; first compound 0.001 µM): 0.764
- relative viability (COR-L 105; first compound 0.003162 µM): 0.711
- relative viability (COR-L 105; first compound 0.01 µM): 0.75
- relative viability (COR-L 105; first compound 0.03162 µM): 0.698
- relative viability (COR-L 105; first compound 0.1 µM): 0.853
- relative viability (ChaGo-K-1; first compound 0.001 µM): 0.416
- relative viability (ChaGo-K-1; first compound 0.003162 µM): 0.48
- relative viability (ChaGo-K-1; first compound 0.01 µM): 1.01
- relative viability (ChaGo-K-1; first compound 0.03162 µM): 0.531
- relative viability (ChaGo-K-1; first compound 0.1 µM): 0.666
- relative viability (EKVX; first compound 0.001 µM): 0.839
- relative viability (EKVX; first compound 0.003162 µM): 0.959
- relative viability (EKVX; first compound 0.01 µM): 1.09
- relative viability (EKVX; first compound 0.03162 µM): 0.88
- relative viability (EKVX; first compound 0.1 µM): 0.955
- relative viability (H3255; first compound 0.001 µM): 0.9
- relative viability (H3255; first compound 0.003162 µM): 0.733
- relative viability (H3255; first compound 0.03162 µM): 0.922
- relative viability (H3255; first compound 0.1 µM): 0.325
- relative viability (HARA; first compound 0.001 µM): 0.569
- relative viability (HARA; first compound 0.003162 µM): 1.24
- relative viability (HARA; first compound 0.01 µM): 1.14
- relative viability (HARA; first compound 0.03162 µM): 0.842
- relative viability (HARA; first compound 0.1 µM): 0.482
- relative viability (HCC-827; first compound 0.003162 µM): 0.634
- relative viability (HCC-827; first compound 0.01 µM): 0.721
- relative viability (HCC-827; first compound 0.03162 µM): 0.563
- relative viability (HCC-827; first compound 0.1 µM): 0.542
- relative viability (HOP-62; first compound 0.001 µM): 0.727
- relative viability (HOP-62; first compound 0.003162 µM): 0.792
- relative viability (HOP-62; first compound 0.01 µM): 0.839
- relative viability (HOP-62; first compound 0.03162 µM): 0.786
- relative viability (HOP-62; first compound 0.1 µM): 0.529
- relative viability (LCLC-103H; first compound 0.001 µM): 0.971
- relative viability (LCLC-103H; first compound 0.003162 µM): 1.3
- relative viability (LCLC-103H; first compound 0.01 µM): 1.33
- relative viability (LCLC-103H; first compound 0.03162 µM): 0.927
- relative viability (LCLC-103H; first compound 0.1 µM): 0.919
- relative viability (LOU-NH91; first compound 0.001 µM): 0.318
- relative viability (LOU-NH91; first compound 0.003162 µM): 0.308
- relative viability (LOU-NH91; first compound 0.01 µM): 0.346
- relative viability (LOU-NH91; first compound 0.03162 µM): 0.276
- relative viability (LOU-NH91; first compound 0.1 µM): 0.321
- relative viability (NCI-H1975; first compound 0.001 µM): 0.212
- relative viability (NCI-H1975; first compound 0.003162 µM): 0.143
- relative viability (NCI-H1975; first compound 0.01 µM): 0.171
- relative viability (NCI-H1975; first compound 0.03162 µM): 0.205
- relative viability (NCI-H1975; first compound 0.1 µM): 0.138
- relative viability (NCI-H2126; first compound 0.001 µM): 0.832
- relative viability (NCI-H2126; first compound 0.003162 µM): 1
- relative viability (NCI-H2126; first compound 0.01 µM): 1.1
- relative viability (NCI-H2126; first compound 0.03162 µM): 0.936
- relative viability (NCI-H2126; first compound 0.1 µM): 0.596
- relative viability (NCI-H2228; first compound 0.003162 µM): 0.161
- relative viability (NCI-H2228; first compound 0.01 µM): 0.183
- relative viability (NCI-H2228; first compound 0.03162 µM): 0.151
- relative viability (NCI-H2228; first compound 0.1 µM): 0.0953
- relative viability (NCI-H23; first compound 0.001 µM): 0.204
- relative viability (NCI-H23; first compound 0.01 µM): 0.205
- relative viability (NCI-H23; first compound 0.03162 µM): 0.19
- relative viability (NCI-H23; first compound 0.1 µM): 0.195
- relative viability (NCI-H2405; first compound 0.001 µM): 0.76
- relative viability (NCI-H2405; first compound 0.003162 µM): 0.575
- relative viability (NCI-H2405; first compound 0.01 µM): 0.756
- relative viability (NCI-H2405; first compound 0.03162 µM): 0.448
- relative viability (NCI-H2405; first compound 0.1 µM): 0.658
- relative viability (NCI-H3122; first compound 0.001 µM): 0.109
- relative viability (NCI-H3122; first compound 0.003162 µM): 0.106
- relative viability (NCI-H3122; first compound 0.01 µM): 0.0956
- relative viability (NCI-H3122; first compound 0.03162 µM): 0.0805
- relative viability (NCI-H3122; first compound 0.1 µM): 0.047
- relative viability (NCI-H596; first compound 0.001 µM): 1.16
- relative viability (NCI-H596; first compound 0.003162 µM): 1.05
- relative viability (NCI-H596; first compound 0.01 µM): 1.01
- relative viability (NCI-H596; first compound 0.03162 µM): 0.655
- relative viability (NCI-H596; first compound 0.1 µM): 0.833
- relative viability (NCI-H650; first compound 0.001 µM): 0.687
- relative viability (NCI-H650; first compound 0.003162 µM): 0.564
- relative viability (NCI-H650; first compound 0.01 µM): 0.792
- relative viability (NCI-H650; first compound 0.03162 µM): 0.742
- relative viability (NCI-H650; first compound 0.1 µM): 0.79
- relative viability (NCI-H661; first compound 0.001 µM): 1.01
- relative viability (NCI-H661; first compound 0.003162 µM): 0.961
- relative viability (NCI-H661; first compound 0.03162 µM): 1.01
- relative viability (NCI-H661; first compound 0.1 µM): 0.832
- relative viability (NCI-H727; first compound 0.001 µM): 0.349
- relative viability (NCI-H727; first compound 0.003162 µM): 0.516
- relative viability (NCI-H727; first compound 0.01 µM): 0.227
- relative viability (NCI-H727; first compound 0.03162 µM): 0.281
- relative viability (NCI-H727; first compound 0.1 µM): 0.344
- relative viability (PC-3 [JPC-3]; first compound 0.001 µM): 0.548
- relative viability (PC-3 [JPC-3]; first compound 0.003162 µM): 0.627
- relative viability (PC-3 [JPC-3]; first compound 0.01 µM): 0.869
- relative viability (PC-3 [JPC-3]; first compound 0.03162 µM): 0.659
- relative viability (PC-3 [JPC-3]; first compound 0.1 µM): 0.526
- relative viability (SK-LU-1; first compound 0.001 µM): 0.19
- relative viability (SK-LU-1; first compound 0.003162 µM): 0.212
- relative viability (SK-LU-1; first compound 0.03162 µM): 0.215
- relative viability (SK-LU-1; first compound 0.1 µM): 0.217
- relative viability (SW 900; first compound 0.001 µM): 0.177
- relative viability (SW 900; first compound 0.003162 µM): 0.176
- relative viability (SW 900; first compound 0.01 µM): 0.164
- relative viability (SW 900; first compound 0.03162 µM): 0.186
- relative viability (SW 900; first compound 0.1 µM): 0.198
